The results in this text go back to article PMC5862567, “Validating and enabling phosphoglycerate dehydrogenase (PHGDH) as a target for fragment-based drug discovery in PHGDH-amplified breast cancer” (Oncotarget, 2016).

Experiment [1] deals with T1, recombinant full-length PHGDH (Homo sapiens, UniProt O43175).
T1 construct: encoding for the full-length enzyme (aa 1-533); His6 (N, cleaved yes); TEV protease recognition site (N, cleaved yes); made in house; host or cells: E. coli Rosetta (DE3)
T1 sequence (O43175 1-533): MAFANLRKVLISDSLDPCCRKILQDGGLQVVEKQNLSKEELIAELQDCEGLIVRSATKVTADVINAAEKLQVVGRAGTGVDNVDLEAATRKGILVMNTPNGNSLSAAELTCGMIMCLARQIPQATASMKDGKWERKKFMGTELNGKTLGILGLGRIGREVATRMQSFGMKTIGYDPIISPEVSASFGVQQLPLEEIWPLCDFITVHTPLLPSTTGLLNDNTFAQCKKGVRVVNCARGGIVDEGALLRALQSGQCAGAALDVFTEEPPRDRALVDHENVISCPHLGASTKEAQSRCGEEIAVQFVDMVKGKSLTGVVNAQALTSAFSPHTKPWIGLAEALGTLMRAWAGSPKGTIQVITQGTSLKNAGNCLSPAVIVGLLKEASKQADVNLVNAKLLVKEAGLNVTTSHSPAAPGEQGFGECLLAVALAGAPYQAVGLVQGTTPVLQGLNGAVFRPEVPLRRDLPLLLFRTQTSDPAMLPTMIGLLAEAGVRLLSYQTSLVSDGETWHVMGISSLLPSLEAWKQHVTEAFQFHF
The experiment is described as follows: Differential scanning fluorimetry (DSF) thermal shift assay, fragment screen. It is filed as binding. Set-up: key to Z score: Z-score of Tm shift, in standard deviations from the screen mean. The note with it: for Z score: average Z score of primary fragment screens by DSF; for ΔTm at 1000 µM: fragment 1 mM, primary DSF screen, 15 μM PHGDH, read-out: ΔTm (screening hit); for ΔTm (repurchased fragment): DSF. As to the method:
In this study a ‘rule-of-three’ [18] compliant library of 600 fragments (CRT Cambridge, UK) was screened against recombinant full-length PHGDH using a differential scanning fluorimetry (DSF) assay. PHGDH has an average melting temperature (Tm) of 54 °C. Fragments were screened at 1 mM in the presence of 1 % DMSO. 1 mM NADH was used as positive control, and gave an increased Tm of 61 °C, corresponding to a Δ Tm of 7 °C (Supplementary Figure S2). Hits were determined based on an average Z-score ≥ 1, i.e. to a change in Tm of PHGDH equal to or greater than one standard deviation of the mean (Supplementary Table S1). Applying this threshold, 42 compounds were classified as hits, which corresponds to a hit rate of […]. A subset of 15 fragments was commercially available and were repurchased and further evaluated in an ITC competition experiment (Figure 3, Table 1, Supplementary Figure S3). The ITC competition experiments confirmed binding of 13 fragments to the cofactor-binding pocket of PHGDH. […] In order to further characterise the hits, and to help us prioritise their use as seeds for further hit-expansion studies, we undertook a crystallographic investigation of their respective binding modes.
The DSF assay was performed in 384-well plates (Corning, black) in 25 mM HEPES, pH 7.5, 100 mM NaCl, 0.5 mM TCEP, 10 x SYPRO® Orange (Thermo Fisher Scientific), in a final volume of 15 μL containing 15 μM PHGDH and […]. The fragments were added from a 100 mM master stock in 100 % DMSO to a final concentration of 1 mM using an ECHO® acoustic liquid handler (Labcyte). Reference wells contained DMSO only and 1 mM NADH was used as positive control.
The heat denaturation profile of PHGDH was followed using the fluorescence of Sypro Orange with excitation and emission wavelengths of 470 and 570 nm, respectively. Analysis was performed in GraphPad Prism using the Boltzmann equation to determine the melting temperature, Tm, which is the inflection point of the sigmoidal denaturation curve.
Background: Differential scanning fluorimetry follows unfolding on heating by fluorescence.

Experiment [2] deals with T2, sPHGDH (aa 3-314), cofactor-binding pocket (Homo sapiens, UniProt O43175).
T2 construct: the truncated version (sPHGDH, aa 3-314); His6 (N, cleaved yes); TEV protease recognition site (N, cleaved yes); made in house; host or cells: E. coli Rosetta (DE3)
T2 sequence (O43175 3-314): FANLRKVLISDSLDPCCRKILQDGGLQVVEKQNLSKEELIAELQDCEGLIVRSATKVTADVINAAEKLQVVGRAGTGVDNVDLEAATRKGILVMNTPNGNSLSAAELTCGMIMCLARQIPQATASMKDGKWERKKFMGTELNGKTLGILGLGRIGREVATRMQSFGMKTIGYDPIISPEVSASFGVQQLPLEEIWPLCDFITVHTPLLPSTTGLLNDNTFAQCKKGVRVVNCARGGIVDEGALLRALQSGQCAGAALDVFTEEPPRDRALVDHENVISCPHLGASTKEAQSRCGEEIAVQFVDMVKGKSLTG
The experiment is described as follows: ITC competition experiment (NADH titrated into sPHGDH premixed with fragment). Particulars: for Kd / ΔH / ΔS: competition ITC, 5 mM fragment, 25 °C; for Kd: 0.5 mM NADH into 0.05 mM sPHGDH, 5 % DMSO; for LE: ΔG per number of non-hydrogen atoms (= #).
Method: To remove residual bound cofactor, sPHGDH was incubated with 0.5 equivalents of activated charcoal for 30 minutes at room temperature prior to performing the ITC experiments. […] 1 x 0.5 μL, followed by 17 x 2 μL injections of ligands into protein with 120 seconds spacing between the injections was conducted. Titration of 0.5 mM NADH in 5 % DMSO into 0.05 mM sPHGDH in 5 % DMSO was used as reference.

“And” between values parts separate entries of the source, which are not always exact repeats. Equal values may be shown once. “Also recorded” adds a separate entry of the source. Read-outs that look alike come from different tables or passages of the source.

In the case of `Cc1cncc(Oc2cccc(N)c2)n1` [Fragment 11, 3-(6-Methylpyrazin-2-yl)oxyaniline], in experiment [1], the Z score is 1.1 ± 0.6; the ΔTm – broadly, the shift of the melting midpoint relative to a reference – at 1000 µM turned out to be 1.7 ± 0.7 °C; the “ΔTm (repurchased fragment)” value is -0.6 ± 0.6 °C. For the same molecule, in experiment [2] (read-out: Kd), the equilibrium dissociation constant (Kd) (usually the free concentration of one partner at which half of the binding sites on the other are occupied at equilibrium, for simple one-to-one binding) is 11.5 ± 8.4 mM. For the same molecule, in experiment [2], the ΔH is -11.5 kJ/mol, the ΔS is -0.08 kJ (mol x K) and the LE is 0.18 kcal/(mol·heavy atom).
Consider `Cc1ccc(F)cc1C(=O)O` [Fragment 14, 5-Fluoro-2-methylbenzoic acid], for which, in experiment [1], the Z score was found to be 1.1 ± 0.2, the ΔTm at 1000 µM was 1.4 ± 0.5 °C and the “ΔTm (repurchased fragment)” value came to 0.4 ± 0.3 °C. Moreover, the Kd in experiment [2] (read-out: Kd) is 26 mM and 26.2 mM. Also, in experiment [2], the ΔH is listed as -47.0 kJ/mol, the ΔS was -0.19 kJ (mol x K) and the LE is 0.2 kcal/(mol·heavy atom).
Regarding `Cc1cncc(Oc2cccc(CO)c2)n1` [Fragment 7, [3-(6-Methylpyrazin-2-yl)oxyphenyl] methanol], in experiment [1], the Z score worked out at 1.2 ± 0.9, the ΔTm at 1000 µM came to 1.8 ± 1.7 °C and the “ΔTm (repurchased fragment)” value is -0.3 ± 0.2 °C. Further, the Kd in experiment [2] (read-out: Kd) was 16.6 ± 10.4 mM. In experiment [2], the ΔH is recorded as 15.8 kJ/mol, the ΔS is 0.02 kJ (mol x K) and the LE was 0.15 kcal/(mol·heavy atom).
Consider `Cc1cccc2c(O)noc12` [Fragment 18], for which the Kd in experiment [2] (read-out: Kd) amounted to 15.9 ± 7.4 mM. In addition, in experiment [2], the ΔH is on record as -194.3 kJ/mol, the ΔS is -0.67 kJ (mol x K) and the LE is 0.22 kcal/(mol·heavy atom). For the same molecule, in experiment [2] (competitive ITC Kd, versus 16), the “fold reduced affinity compared to fragment 16” value turned out to be 2.5 fold.
For `CCc1nc(C)c[nH]1` [Fragment 2, 2-Ethyl-4-methylimidazole], in experiment [1], the Z score came to 1.0 ± 1.0, the ΔTm at 1000 µM is 2 ± 2.1 °C and the “ΔTm (repurchased fragment)” value was -0.1 ± 0.2 °C. Moreover, the Kd entry in experiment [2] is listed as “No competition”.
As to `COc1ccc(NC(C)=O)cc1Cl` [Fragment 15, N-(3-chloro-4-methoxyphenyl) acetamide], in experiment [1], the Z score came out at 1.2 ± 0.3, the ΔTm at 1000 µM stood at 1.3 ± 0.2 °C and the “ΔTm (repurchased fragment)” value is -0.2 ± 0.4 °C. Also, the Kd in experiment [2] (read-out: Kd) stood at 2.8 ± 1.6 mM. Also, in experiment [2], the ΔH is recorded as -1753.2 kJ/mol, the ΔS is -5.93 kJ (mol x K) and the LE is 0.27 kcal/(mol·heavy atom).
`Cn1ccc2cc(N)ccc21` [Fragment 9, 5-Amino-1-methyl-1H-indole]: in experiment [1], the Z score turned out to be 1.8 ± 1.4, the ΔTm at 1000 µM was found to be 2 ± 1.2 °C and the “ΔTm (repurchased fragment)” value stood at 1.2 ± 0.4 °C. Besides, in experiment [2] (read-out: Kd), the Kd is 11.1 ± 5 mM. For the same molecule, in experiment [2], the ΔH is recorded as -102.0 kJ/mol, the ΔS is -0.38 kJ (mol x K) and the LE was 0.24 kcal/(mol·heavy atom).
For `Oc1ccnc(O)c1` [Fragment 13, 2,4.Dihydroxy pyridine], in experiment [1], the Z score was found to be 1.4 ± 0.2, the ΔTm at 1000 µM amounted to 0.8 ± 0.1 °C and the “ΔTm (repurchased fragment)” value stood at 0.3 ± 0.1 °C. Also, the equilibrium dissociation constant (Kd) entry in experiment [2] is “No competition”.
`Oc1noc2ccc(F)cc12` [Fragment 19, 5-fluoro-3-hydroxybenzisoxazole]: the Kd in experiment [2] (read-out: Kd) turned out to be 15.4 ± 10.2 mM. In addition, in experiment [2], the ΔH is recorded as -190.1 kJ/mol, the ΔS is -0.67 kJ (mol x K) and the LE is 0.22 kcal/(mol·heavy atom). In addition, the “fold weaker binding affinity compared to 17” value in experiment [2] (competitive ITC Kd, versus 17) amounted to 6 fold.
Consider `Cn1nc(-c2ccccc2)cc1N` [Fragment 3, 1-Methyl-3-phenyl-1H-pyrazol-5-amine], for which, in experiment [1], the Z score is on record as 1.0 ± 0.4, the ΔTm at 1000 µM is 2.2 ± 0.8 °C and the “ΔTm (repurchased fragment)” value was -0.2 ± 0.2 °C. Also, the Kd in experiment [2] (read-out: Kd) amounted to 5.8 ± 2 mM. Also, in experiment [2], the ΔH is -467.2 kJ/mol, the ΔS is -1.61 kJ (mol x K) and the LE was 0.23 kcal/(mol·heavy atom).
As for `Nc1cccc(-c2cnco2)c1` [Fragment 10, 3-(1,3-oxazol-5-yl)aniline], in experiment [1], the Z score was found to be 1.0 ± 0.9, the ΔTm at 1000 µM was 1.4 ± 0.6 °C and the “ΔTm (repurchased fragment)” value is -0.8 ± 0.3 °C. In experiment [2], the ΔH is -260.8 kJ/mol and the ΔS is -0.91 kJ (mol x K).
On to `NC(=O)c1ccc(F)c(Cl)c1` [Fragment 5, 3-Chloro-4-fluorobenzamide], for which, in experiment [1], the Z score amounted to 1.0 ± 0.8, the ΔTm at 1000 µM was determined as 2.3 ± 1 °C and the “ΔTm (repurchased fragment)” value is -0.1 ± 0.2 °C. For the same molecule, the Kd in experiment [2] (read-out: Kd) was 1.6 ± 0.2 mM. Also, in experiment [2], the ΔH is -5.4 kJ/mol, the ΔS was -0.07 kJ (mol x K) and the LE is 0.35 kcal/(mol·heavy atom).
Turning to `Cc1cccc2cc[nH]c12` [Fragment 6, 7-Methyl-1H-indole], in experiment [1], the Z score is reported as 1.1 ± 0.7, the ΔTm at 1000 µM worked out at 2.4 ± 1.2 °C and the “ΔTm (repurchased fragment)” value was 0.2 ± 0.2 °C. Besides, in experiment [2] (read-out: Kd), the Kd was 1.5 ± 0.2 mM. In addition, in experiment [2], the ΔH is -1593.9 kJ/mol, the ΔS is -5.40 kJ (mol x K) and the LE was 0.38 kcal/(mol·heavy atom).
`Oc1noc2ccc(Br)cc12` [Fragment 20]: in experiment [2], the Kd entry is on record as “no binding affinity was detected; also recorded: Compound precipitated”.
As for `Oc1ncnc2cccc(F)c12` [Fragment 4, 5-Fluoro-4-hydroxy quinazoline], in experiment [1], the Z score is given as 1.0 ± 0.8, the ΔTm at 1000 µM was determined as 2.4 ± 1.1 °C and the “ΔTm (repurchased fragment)” value was 0.2 ± 0.3 °C. In addition, the Kd in experiment [2] (read-out: Kd) was found to be 12.8 ± 2.7 mM. Moreover, in experiment [2], the ΔH came out at 8.3 kJ/mol, the ΔS was -0.01 kJ (mol x K) and the LE was 0.21 kcal/(mol·heavy atom).
For the molecule `c1ccc(Cn2ccnc2)cc1` [Fragment 12, 1-Benzylimidazole], in experiment [1], the Z score is given as 1.1 ± 0.2, the ΔTm at 1000 µM stood at 1.3 ± 0.9 °C and the “ΔTm (repurchased fragment)” value is -0.6 ± 0.4 °C. For the same molecule, in experiment [2] (read-out: Kd), the Kd stood at 11.8 ± 9.6 mM. For the same molecule, in experiment [2], the ΔH is -64.4 kJ/mol, the ΔS is -0.25 kJ (mol x K) and the LE was 0.22 kcal/(mol·heavy atom).
For the molecule `NC(=O)C1=CN([C@@H]2O[C@H](COP(=O)(O)OP(=O)(O)OC[C@H]3O[C@@H](n4cnc5c(N)ncnc54)[C@H](O)[C@@H]3O)[C@@H](O)[C@H]2O)C=CC1` [NADH, reference compound], the ΔTm in experiment [1] (1 mM NADH positive control) turned out to be 7 °C. Further, the “Tm of PHGDH in presence of compound” value in experiment [1] (1 mM NADH positive control, PHGDH alone Tm 54 °C) is 61 °C.
Turning to `Oc1noc2cc(Cl)ccc12` [Fragment 17, 6-chloro-3-hydroxybenzisoxazole], the Kd in experiment [2] (read-out: Kd) was 2.4 ± 0.7 mM. For the same molecule, in experiment [2], the ΔH was -1517.3 kJ/mol, the ΔS was -5.14 kJ (mol x K) and the LE is 0.32 kcal/(mol·heavy atom).
